Measurements taken from patent US9085576B2 (AMGEN INC., priority 2013, dated 2015).

Assays:
[1] = tested on: pigment epithelium of the rat's eye; details: higher compound dose given for three months; cited from earlier work
BACE1 [2] = target: BACE1 (Homo sapiens (Human), UniProt P56817); details: cited from earlier work
BACE = BACE (Homo sapiens (Human), UniProt P56817); test: In vitro BACE cell-based assay (Aβ40 in conditioned medium, sandwich ELISA)
[3] = target: Beta Secretase enzyme (BACE) (Homo sapiens (Human), UniProt P56817); test: In vitro enzymatic BACE FRET assay; format: biochemical; details: read-out: BACE1 Enzyme assay IC50
Sequence of Beta Secretase enzyme (BACE) (P56817 46-501): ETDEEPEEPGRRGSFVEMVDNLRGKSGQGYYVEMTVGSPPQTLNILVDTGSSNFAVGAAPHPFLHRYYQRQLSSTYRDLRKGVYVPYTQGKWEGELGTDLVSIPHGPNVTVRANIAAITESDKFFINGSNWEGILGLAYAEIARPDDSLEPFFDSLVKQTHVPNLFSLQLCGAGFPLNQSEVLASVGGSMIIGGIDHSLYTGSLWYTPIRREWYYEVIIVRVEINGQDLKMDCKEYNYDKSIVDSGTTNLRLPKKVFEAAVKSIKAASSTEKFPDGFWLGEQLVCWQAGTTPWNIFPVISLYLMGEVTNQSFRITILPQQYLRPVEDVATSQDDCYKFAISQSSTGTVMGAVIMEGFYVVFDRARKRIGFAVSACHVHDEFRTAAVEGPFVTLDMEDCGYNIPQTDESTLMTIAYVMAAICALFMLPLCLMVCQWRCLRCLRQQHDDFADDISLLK

Abeta 40 = test: In vivo inhibition of beta-secretase: Abeta 40 reduction in CSF and brain of the rat; details: 10 mpk, after 4 hrs; for % reduction of rat CSF levels at 10 pmk: Abeta 40 in rat CSF; for % reduction of rat brain levels at 10 mpk: Abeta 40 in rat brain
Cathepsin D (Cat D) = Cathepsin D (Cat D) (Homo sapiens (Human), UniProt P07339); test: In vitro enzymatic Cathepsin D (Cat D) FRET assay; format: biochemical; details: read-out: CatD IC50
Sequence of Cathepsin D (Cat D) (P07339 65-412, species assumed): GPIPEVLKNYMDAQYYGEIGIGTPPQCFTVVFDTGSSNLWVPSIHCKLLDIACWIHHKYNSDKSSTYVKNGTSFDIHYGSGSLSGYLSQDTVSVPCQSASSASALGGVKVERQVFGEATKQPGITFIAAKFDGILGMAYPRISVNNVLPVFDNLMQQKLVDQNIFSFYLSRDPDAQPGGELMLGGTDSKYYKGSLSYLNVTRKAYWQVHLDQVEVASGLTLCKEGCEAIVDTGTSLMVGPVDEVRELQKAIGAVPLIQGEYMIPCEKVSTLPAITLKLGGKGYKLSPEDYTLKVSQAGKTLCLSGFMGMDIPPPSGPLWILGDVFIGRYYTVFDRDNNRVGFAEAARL

BACE1 [4] = details: animals, orally available; cited from earlier work

Sequence of BACE (P56817 46-501, species assumed): as the sequence (P56817 46-501) above
Sequence of BACE1 (Homo sapiens (Human), UniProt P56817) (P56817 46-501): as above

| Compound | IC50 (BACE) [µM] | IC50 [3] [nM] | IC50 (Cathepsin D (Cat D)) [nM] | eye toxicity finding [1] | eye assessments (BACE1 [2]; people of the terminated Ph I dosing trial) | % reduction of rat CSF levels at 10 pmk (Abeta 40) [%] | % reduction of rat brain levels at 10 mpk (Abeta 40) [%] | Aβ-lowering effects (BACE1 [4]) | Aβ reductions in lumbar CSF (BACE1 [2]; healthy volunteers, oral dosing of 30 or 90 mg) | safety and tolerability (BACE1 [2]; healthy volunteers) |
| --- | --- | --- | --- | --- | --- | --- | --- | --- | --- | --- |
| C[C@@]1(c2cc(-c3cncnc3)c(F)cc2F)CCSC(N)=N1 [LY 2811376] | – | – | – | damaged the pigment epithelium of the rat's eye | did not show any abnormalities | – | – | – | – | – |
| C[C@@]1(c2cc(-c3cncnc3)c(F)cc2F)CCSC(N)=N1 [LY2811376, (S)-4-(2,4-difluoro-5-pyrimidin-5-yl-phenyl)-4-methyl-5,6-dihydro-4H-[1,3]thiazin-2-ylamine] | – | – | – | – | – | – | – | profound Aβ-lowering effects | Prominent and long-lasting Aβ reductions | safe and well tolerated |

Continued, in another order:

| IC50 (BACE) [µM] | IC50 [3] [nM] | IC50 (Cathepsin D (Cat D)) [nM] | Compound | eye toxicity finding [1] | eye assessments (BACE1 [2]; people of the terminated Ph I dosing trial) | % reduction of rat CSF levels at 10 pmk (Abeta 40) [%] | % reduction of rat brain levels at 10 mpk (Abeta 40) [%] | Aβ-lowering effects (BACE1 [4]) | Aβ reductions in lumbar CSF (BACE1 [2]; healthy volunteers, oral dosing of 30 or 90 mg) | safety and tolerability (BACE1 [2]; healthy volunteers) |
| --- | --- | --- | --- | --- | --- | --- | --- | --- | --- | --- |
| 0.0064 | 34.1 | 956000 | COc1cnc(C(=O)Nc2ccc(F)c([C@@]3(CF)N=C(N)O[C@@H]4C[C@@H]43)c2)c(Cl)c1 [Example 229, N-(3-((1R,5S,6R)-3-amino-5-(fluoromethyl)-2-oxa-4-azabicyclo[4.1.0]hept-3-en-5-yl)-4-fluorophenyl)-3-chloro-5-methoxypicolinamide] | – | – | 41 | 8 | – | – | – |
| 0.0302 | 26.6 | 684000 | NC1=N[C@@](c2cc(NC(=O)c3ccc(Cl)cn3)ccc2F)(C(F)F)[C@H]2C[C@H]2O1 [Example 76, N-(3-((1R,5S,6R)-3-amino-5-(difluoromethyl)-2-oxa-4-azabicyclo[4.1.0]hept-3-en-5-yl)-4-fluorophenyl)-5-chloropicolinamide] | – | – | 64 | 60 | – | – | – |
| 0.0186 | 23.3 | 925000 | NC1=N[C@@](c2cc(NC(=O)c3cnc(OCc4cocn4)cn3)ccc2F)(C(F)F)[C@H]2C[C@H]2O1 [Example 174, N-(3-((1R,5S,6R)-3-amino-5-(difluoromethyl)-2-oxa-4-azabicyclo[4.1.0]hept-3-en-5-yl)-4-fluorophenyl)-5-(oxazol-4-ylmethoxy)pyrazine-2-carboxamide] | – | – | 46 | 26 | – | – | – |
